One compound from patent US20150064221A1, “COMPOUNDS HAVING IMMUNOMUDULATOR ACTIVITY” (priority 2012, published 2015) can be followed below.

The structures appear in SMILES notation. “Also recorded” adds a separate entry of the source.

One series relates to CAR-induced pleurisy. Nature of the series: Carrageenan (CAR)-induced pleurisy. The series is classed as in vivo, mice. The conditions noted are these: i.p. or oral. The method, then:
VGX-1027 was administered via the intraperitoneum or orally, and the production of exudates volume (A), PCN infiltration (B), and MPO activity (C) in the lungs was determined. Data are means±SD from 2 independent experiments.
Next, carrageenan (CAR)-induced pleurisy, a well-known model of acute inflammation mediated by leukocytes where type-1 proinflammatory cytokines such as IL-1 and TNF-α play a major pathogenic role, was evaluated. Mice that are challenged with CAR develop acute pleurisy with turbid exudates. The amount of inflammation was measured by the volume of exudates, the number of granulocytes (PCN), and the amount of Myeloperoxidase (MPO), activity in the lungs. Anti-TNF antibodies were used as a control to compare the effects of VGX-1027 with those of TNF-α blockade, which is commonly used to treat inflammatory disorders in humans.

The target of another series is COX-2 (Homo sapiens, UniProt P35354). Nature of the series: COX-2 activity. The series is classed as biochemical. The method, then: (§1) The highest plasma concentrations generally occurred in 1-2 hours. […] The highest level of inhibition was ˜35% for 2C19 at a 30 μM concentration. […] Lastly, VGX-1027 is stable in human liver S9 fractions (with phase 1 and 2 cofactors) with t1/2>90 minutes, which indicates a low likelihood of metabolism in the liver.

For another series, the system named is Normal human PBMCs. Briefly: Ex vivo immune effects in PBMCs with plasma of dosed subjects. The conditions noted are these: LPS 5 μg/ml + plasma of 5th day after dosing. In kind it is cell-based. The method, then: Normal human PBMCs were isolated and cultured in the presence of LPS (5 μg/ml) with or without VGX-1027 treated plasma. Plasma samples were obtained by blood collection before and on the 5th day after VGX-1027 dosing in steady state. Cell free supernateants were analyzed for production of TNF-α and IL-1β 24 hours post treatment. Cytokine levels (pg/ml) were assayed by ELISA. Representative results were correlated with pro-inflammatory cytokine inhibition.

The subject of series [1] is endotoxin-induced uveitis. Nature of the series: Endotoxin-induced uveitis (EIU). The series is classed as in vivo, Lewis rats. The procedure:
Rats were treated with VGX-1027 at 30 minutes (A) and 6 and 12 hours (B) after LPS injection […]). […] were evaluated 16 hours post LPS injection. Dexamethasone (1 mg/kg) was administered as a positive control. *p<0.0001 vs. vehicle.
Chronic intraocular inflammation denotes a heterogeneous group of diseases that is a leading cause of acquired blindness in adults. Uveitis refers to inflammation of the uvea, which is the vascular tunic or middle coat of the eye, and is responsible for approximately 3% of blindness in the United States. Unlike other autoimmune conditions with known etiologies, uveitis manifests in a number of inflammatory syndromes including Crohn's disease, Behcet's disease, sarcoidosis, and others (Yeh et al., Semin. Immunopathol., (30) 145-164 (2008)). To study the possible utility of VGX-1027 in treating ocular inflammatory conditions, we injected LPS into footpads of Lewis Rats to induce uveitis. After 16 hours post LPS injection, the rats were sacrificed, and their eyes and aqueous humor were collected to study serological, immunological, and histological signs of EIU. The development of EIU was graded on the following scale: (0) no inflammatory reaction; (1) discrete dilatation of the iris and conjunctival vessels; (2) moderate dilatation of the iris and conjunctival vessels; (3) intense iridal hyperaemia with flare in anterior chamber; and (4) same clinical signs as grade 3 plus the presence of fibrinous exudate in the pupillary area with intense flare in the anterior chamber.

Series [2] concerns type II collagen-induced arthritis. Briefly: Type II collagen-induced arthritis (CIA). In kind it is in vivo, mice. The procedure:
VGX-1027 was administered intraperitoneally and were measured for an arthritic score (A), cumulative arthritic score (B), hind paws edema (C), and histological score (D) were measured. Data are shown as mean values±SD form 2 independent experiments. Statistical analysis was performed by Student's t test. *p<0.0001 was taken as significant.
To induce CIA, the mice were injected intradermally at the base of the tail with […] of an emulsion containing […] of CII, and were boosted on day 21. In terms of treatment, VGX-1027 was used only as a “therapeutic” regime by administering the drug via intraperitoneal administration to mice with a clinical score equal or higher than 1. The mice were treated with vehicle, dexamethasone (0.3 mg/kg), or VGX-1027 (0.5 mg/mouse) for 10 consecutive days. The mice were assessed with the following scoring system: 0=no signs of arthritis; 1=swelling and/or redness of the paw or 1 digit; 2=involvement of 2 joints; 3=involvement of N2 joints, and 4=severe arthritis of the entire paw and digits. An arthritis index was calculated for each mouse by summing the scores for the individual paws. Other clinical severity measures were hind paw volume and histological assessment of damage; the latter was measured with the following criteria: 0=no damage; 1=edema; 2=presence of inflammatory cells; and 3-bone resorption.

The subject of the next series is NF-kB. Nature of the series: NF-kB activation in human macrophages. The series is classed as cell-based. The conditions noted are these: LPS induced, monocyte-derived human macrophages.
Series [3] relates to In vitro-derived human DCs. Briefly: LPS-induced cytokine production of dendritic cells. In kind it is cell-based. The following applies: LPS 5 μg/ml, 10 mM, 72 hours. The method, then:
In vitro-derived human DCs were treated with LPS (5 μg/ml), with or without VGX-1027 (10 mM) for 72 hours. Concentrations of the cytokines in the media were measured via ELISA.

A short description of series [4]: Stability in human liver S9 fractions. The conditions noted are these: with phase 1 and 2 cofactors, read-out: t1/2 in human liver S9 fractions. In kind it is in vitro ADME. The method, then: as §1

Sequence of COX-2 (P35354 18-604): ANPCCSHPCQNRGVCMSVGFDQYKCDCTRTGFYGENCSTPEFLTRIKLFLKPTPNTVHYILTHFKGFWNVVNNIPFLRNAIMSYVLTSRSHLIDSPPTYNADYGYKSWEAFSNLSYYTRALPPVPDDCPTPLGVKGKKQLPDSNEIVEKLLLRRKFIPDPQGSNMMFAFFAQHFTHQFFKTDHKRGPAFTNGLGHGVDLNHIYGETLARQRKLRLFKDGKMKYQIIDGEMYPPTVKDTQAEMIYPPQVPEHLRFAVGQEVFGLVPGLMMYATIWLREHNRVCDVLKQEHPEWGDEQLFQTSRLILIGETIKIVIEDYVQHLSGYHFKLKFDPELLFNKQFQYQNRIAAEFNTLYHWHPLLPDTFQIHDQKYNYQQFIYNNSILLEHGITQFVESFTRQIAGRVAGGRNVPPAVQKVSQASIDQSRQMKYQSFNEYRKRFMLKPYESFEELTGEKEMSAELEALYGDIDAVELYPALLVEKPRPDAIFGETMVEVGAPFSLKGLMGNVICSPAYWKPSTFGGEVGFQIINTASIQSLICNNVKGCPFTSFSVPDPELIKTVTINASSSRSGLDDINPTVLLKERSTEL

In the case of `O=C(O)CC1CC(c2ccccc2)=NO1` (stereo not shown) [VGX-1027, 3-phenyl-4,5-dihydro-5-isoxazoleacetic acid], in the series on CAR-induced pleurisy, the “Myeloperoxidase (MPO) activity in the lungs” value was “effectively decreased”, the “number of granulocytes (PCN)” value is listed as “effectively decreased”, the “prevention of CAR-induced pleurisy compared with anti-TNF” value is reported as “as effective as anti-TNF treatment” and the volume of exudates result is “effectively decreased”. Also, the “inhibition of COX-2 activity” value at COX-2 was “no significant inhibition”. Also, in the series with Normal human PBMCs, the IL-1β levels entry is listed as “repressed to levels comparable to the negative controls” and the TNF-α levels entry was “repressed to levels comparable to the negative controls”. Further, in series [1] (LPS-induced increase), the “inflammatory cytokines in the aqueous humor” value was “decreased” and the “protein in the aqueous humor” value is “decreased”. In addition, in series [1] (administered 30 minutes after LPS), the clinical inflammation score result was “significantly lower”. Moreover, the clinical inflammation grade result in series [1] (administered 12 hours post LPS) is recorded as “not observed”. In addition, the “infiltration of cells into the iris ciliary body” value in series [1] (rat, in vivo) was “decreased”. In series [2] (after 3 days of therapy), the hind paw volume result is recorded as “significant decreases” and the mean arthritic score entry was “significant decreases”. For the same compound, in series [2] (mouse, in vivo), the “inflammation via histological measurement” value is “improvements”. Moreover, the “clinical features of CIA” value in series [2] (therapeutic, i.p. 0.5 mg/mouse, 10 days) is “attenuated; also recorded: comparable to the amount observed with dexamethasone”. Also, the “DNA binding of NF-kB” value with NF-kB was “powerfully inhibits in a dose-dependent fashion”. Further, in series [3], the IL-6 production result was “dramatically repressed”, the IL-18 production result was “dramatically repressed”, the IL-23 production entry was “dramatically repressed” and the TNF-α production result is “dramatically repressed”. Further, the half-life in series [4] was more than 1.5 h.
